Source: PMC9653733, “Characterization of a Potent, Selective, and Safe Inhibitor, Ac15(Az8)2, in Reversing Multidrug Resistance Mediated by Breast Cancer Resistance Protein (BCRP/ABCG2)” (International Journal of Molecular Sciences, 2022)

Columns and labels:
S1M180 xenograft [1] = test system: S1M180 xenograft
Source text: (§1) (A) S1 xenograft. (B) S1M180 xenograft. There were 3 treatment groups in S1 and S1M180 xenograft model. Treatments were given as indicated by an arrow (↑). % of tumor volume reduction was compared among different treatment groups on days 55 and 71. a, b, and c = mean tumor volume of solvent control, topotecan alone, and combination treatment groups on day 55, respectively. d and e = mean tumor volume of topotecan alone and combination treatment groups on day 71. (C) Tumor weight of S1M180-bearing mice on termination day. (D) % change of tumor volume and tumor doubling time of S1M180 xenograft were determined on days 55 and 71. […] Number of animal death was monitored during the efficacy study. (E) Body weight of S1M180-bearing mice. (F) To measure plasma and intratumor level of topotecan, S1M180-bearing mice were administered with 45 mg/kg (I.P.) of Ac15(Az8)2 one hour prior to 6 mg/kg (I.P.) of topotecan administration. Five hours after topotecan administration, the mice were sacrificed. Plasma and tumor were collected for analyzing topotecan level using UPLC–MS/MS. Student’s unpaired two-tailed t-test was performed between combination group and topotecan alone group or solvent control group as indicated (* p < 0.05, ** p < 0.01, *** p < 0.001).
Ten million of S1M180 cells were injected subcutaneously into Balb/c nu nu mice (Beijing Vital River Laboratory Animal Technology Co., Ltd., Beijing, China). Mice with solid tumors formed were sacrificed. The tumor was removed and cut into 1 mm^3 and xenografted subcutaneously onto another Balb/c nu nu mouse for passage or efficacy study. Treatment of nude mice started when the xenograft reached 100–150 mm^3. The mice were randomized into 3 groups (n = 7 mice per group). Group (1) was treated with Ac15(Az8)2 solvent (I.P.) and topotecan solvent (I.P.), group (2) was treated with Ac15(Az8)2 solvent (I.P.) and topotecan (2 mg/kg, I.P.), group (3) was treated with Ac15(Az8)2 (45 mg/kg, I.P.) and topotecan (2 mg/kg, I.P.). The formulation used was the same as that of the pharmacokinetic study. S1M180-bearing nude mice were treated for 4 rounds. In each round, they were treated once every two days 6 times, allowed to rest for 7 days, and treated again. […] The body weights of mice were monitored throughout the experiment. Tumor dimensions were measured by an electronic caliper, and the tumor volume was calculated as reported previously.

BCRP (S1M180 cells) = target: T1, BCRP (S1M180 cells) (Homo sapiens, UniProt Q9UNQ0, R482G); assay: Drug accumulation assay in S1M180; format: cell-based
T1 construct: endogenous in cells; host or cells: S1M180 (human colon carcinoma, mitoxantrone-selected)
T1 sequence (Q9UNQ0 1-655 R482G): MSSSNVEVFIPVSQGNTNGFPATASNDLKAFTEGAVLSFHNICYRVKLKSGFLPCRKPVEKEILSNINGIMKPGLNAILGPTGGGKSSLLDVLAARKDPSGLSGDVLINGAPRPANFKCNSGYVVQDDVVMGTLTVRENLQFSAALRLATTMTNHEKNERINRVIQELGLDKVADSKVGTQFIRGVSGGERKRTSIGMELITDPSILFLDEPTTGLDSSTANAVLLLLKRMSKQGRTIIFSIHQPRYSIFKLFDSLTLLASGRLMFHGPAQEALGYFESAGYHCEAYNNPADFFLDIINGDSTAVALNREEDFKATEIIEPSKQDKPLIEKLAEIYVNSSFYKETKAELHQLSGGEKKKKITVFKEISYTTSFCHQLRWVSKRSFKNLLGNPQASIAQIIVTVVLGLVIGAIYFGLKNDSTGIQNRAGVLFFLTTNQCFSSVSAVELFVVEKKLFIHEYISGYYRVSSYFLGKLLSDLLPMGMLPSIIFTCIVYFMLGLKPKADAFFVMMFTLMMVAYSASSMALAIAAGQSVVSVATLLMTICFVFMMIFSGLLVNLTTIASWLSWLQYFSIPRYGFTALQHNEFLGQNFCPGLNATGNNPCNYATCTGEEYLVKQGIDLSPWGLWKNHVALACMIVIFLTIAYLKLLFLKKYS
Protocol: Figure 2 Effect of Ac15(Az8)2 on intracellular accumulation of BCRP-substrates in S1 and S1M180 cells. Cells were pre-treated with 0.1% DMSO, 100 nM, or 1000 nM Ac15(Az8)2 and then incubated with BCRP substrates. (A) Topotecan accumulation. (B) DOX accumulation. The intracellular level of drug after treatment was normalized to that of S1 cells after incubating with 0.1% DMSO. Student unpaired two-tailed t-test was conducted as indicated (** p < 0.01, *** p < 0.001). (C) To measure DOX efflux, S1M180 cells were pre-incubated with medium containing 20 μM DOX for 1 h at 37 °C. Cells were then washed and further incubated with or without 1 µM of Ac15(Az8)2. At 0, 5, 10, 30, 60, 120, and 180 min, the cells were harvested to measure the intracellular DOX level. (D) To determine intracellular Ac15(Az8)2 concentration, 1 × 10^7 cells were incubated with 1 µM of Ac15(Az8)2 at 37 °C for 2 h. Cells were then washed with ice-cold PBS. To the cell pellet, acetonitrile was added to lyse the cells, and the supernatant was saved for Ac15(Az8)2 determination using UPLC–MS/MS.
Briefly, 1 × 10^6 cells of S1 and S1M180 cells were pre-incubated with 100 nM or 1000 nM Ac15(Az8)2 for 2 h and followed by 50 µM of topotecan or 20 µM of DOX for 1-h incubation. DMSO at 0.1% was used as a negative control. After incubation, the cells were spun down and washed with cold PBS, pH7.4 for 2 times and lysed with 100 μL of lysis buffer (0.75 M HCl, 0.2% Triton-X100 in isopropanol) with vigorous vortex. The lysate was further incubated at 37 °C for 20 min. After incubation, the lysate was spun down, and 100 μL of supernatant was saved and seeded into a black 96-well microtiter plate. The fluorescence level of DOX was determined by a fluorescence microplate reader (BMG Technologies) using excitation and an emission wavelength pair of 460 nm and 610 nm.

S1M180 xenograft [2] = assay: In vivo topotecan accumulation in tumor and plasma of S1M180-bearing mice; settings: 45 mg/kg Ac15(Az8)2 I.P. one hour prior to 6 mg/kg topotecan I.P.; 5 h post administration
Source text: as §1

S1 xenograft = assay: In vivo efficacy in parental S1 xenograft; parameters: species or system Balb/c nu nu mice; settings: four times (700% without treatment)
Source text: as §1

[3] = 45 mg/kg Ac15(Az8)2 + 2 mg/kg topotecan
[4] = 100 nM or 1000 nM Ac15(Az8)2, 2 h pre-incubation

| SMILES | Lengthening of tumor doubling time by combination treatment vs solvent group (S1M180 xenograft [1]; [3]) [days] | Lengthening of tumor doubling time by combination treatment vs topotecan alone (S1M180 xenograft [1]; [3]) [days] | Reduction of tumor weight by combination treatment vs solvent group (S1M180 xenograft [1]; termination day, p < 0.001) [fold] | Reduction of tumor weight by combination treatment vs topotecan alone (S1M180 xenograft [1]; termination day, p < 0.01) [fold] | Effect on DOX accumulation in S1M180 (BCRP (S1M180 cells); [4]) | Effect on topotecan accumulation in S1M180 (BCRP (S1M180 cells); [4]) | Effect on plasma level of topotecan (S1M180 xenograft [2]) | Xenograft volume on the 11th day (S1 xenograft; topotecan 2 mg/kg + 45 mg/kg Ac15(Az8)2 I.P. every other day) [%] | Topotecan accumulation in S1M180, fold less than parental S1 (BCRP (S1M180 cells); 50 µM topotecan, 1 h, p < 0.01) | Xenograft volume on the 11th day (S1 xenograft; topotecan alone 2 mg/kg I.P. every other day) [%] |
| --- | --- | --- | --- | --- | --- | --- | --- | --- | --- | --- |
| COC(=O)c1cccc(COc2c(-c3ccc(OCCOCCn4cc(CN(Cc5ccccc5)Cc5cn(CCOCCOc6ccc(-c7oc8ccccc8c(=O)c7OCc7cccc(C(=O)OC)c7)cc6)nn5)nn4)cc3)oc3ccccc3c2=O)c1 [Ac15(Az8)2] | 4.6 | 1.8 | 1.9 | 1.6 | increase the accumulation | increase the accumulation | did not change significantly | 200 | – | – |
| CC[C@@]1(O)C(=O)OCc2c1cc1n(c2=O)Cc2cc3c(CN(C)C)c(O)ccc3nc2-1 [topotecan] | – | – | – | – | – | – | – | – | about 2.1 fold | 200 |
